The results in this text go back to patent US20190070165A1, “N-HYDROXYISOQUINOLINEDIONE INHIBITORS OF HBV REPLICATION” (Saint Louis University, priority 2016, published 2019).

Assay [1] concerns HBV replication. Briefly: HBV replication inhibition assay in HepDES19 cells (strand-preferential q-PCR). The settings on record: for HBV replication inhibition (qualitative): Table 3, qualitative screen at 20 μM; for EC50: Hepatitis B virus, HepDES19, Table 2, qualitative suppression of + and − DNA strands, read-out: EC50 (class symbols); for HBV replication inhibition / activity: HepDES19 cells. It is filed as cell-based, Hepatitis B virus. As to the method:
HBV replication assay. […] Cells were seeded into 6-well plates and incubated in DMEM/F12, 10% fetal bovine serum (FBS), 1% penicillin/streptomycin (P/S) with 1 μg/mL tetracycline. Tetracycline was withdrawn after 24 hours. The test compound was applied to duplicate wells 48 hours later in medium containing a final DMSO concentration of 1%, and medium containing the compound was refreshed daily for the following two days. Cells were harvested and non-encapsidated nucleic acids were digested with micrococcal nuclease (New England Biolabs). HBV DNA was purified from capsids using QIAamp Cador Pathogen Mini Kit (Qiagen) with proteinase K incubation overnight at 37° C. TaqMan PCR was performed for 40 cycles at an annealing temperature of 60° C.
Thirty-nine HID, HPD, flutimide, and related POH compounds (Structures shown in FIG. 3) were screened for their ability to inhibit HBV replication in HepDES19 cells. […] Inhibition was calculated as the amount of plus-polarity DNA relative to the DMSO treated controls.
Briefly, HepDES19 were seeded in 12-well plates at 2×10^5 cells per well in the absence of tetracycline. Test compound was applied to cells 48 hours after removal of tetracycline. […] HBV DNA was purified from capsids using a QIAamp pathogen minikit with proteinase K digestion extended to overnight at 37° C. TaqMan PCR was performed for 40 cycles with an annealing temperature of 60° C.

The test system of assay [2] is HSV-1. Description: HSV-1 replication inhibition assay in Vero cells. The settings on record: for log reduction at 5 µM: read-out: HSV-1 suppression (log10 at 5 μM), class symbol. It is filed as cell-based, herpes simplex virus 1. The method, then: Thirty-seven compounds were counter-screened for efficacy against HSV-1 to evaluate specificity of the inhibitors and to help determine if the efficacy against HBV replication may be due to an unsuspected indirect effect on the cells. Vero cells infected with HSV-1 at an MOI of 0.1 were treated with 5 μM of compound for 24 hours. Inhibition was calculated as log 10 suppression of plaque forming units compared with DMSO vehicle control.
Vero cells were maintained DMEM supplemented with 3% newborn calf serum, 3% bovine growth serum, 2 mM L-glutamine, and P/S. Test compounds were applied to the cells in the presence of 0.05% DMSO. The herpes simplex virus 1 (HSV-1) strain used for screening was a de-identified clinical isolate from the Saint Louis University Hospital passaged once in culture.
Compounds and virus were diluted in phosphate buffered saline (PBS) containing 2% newborn calf serum and 2 mM L-glutamine so that the final concentration of compound was 5 μM. The cells were incubated at 37° C. for 1 hour with the virus containing inoculum, then the inoculum was removed and the wells were washed once in PBS. Compound diluted to 5 μM in supplemented DMEM was added and cells were incubated at 37° C. for an additional 23 hours. The plates were then microscopically inspected for cytopathic effect (CPE) or toxicity and then frozen at −80° C. Virus titers for wells with limited CPE compared to DMSO vehicle-treated controls were then determined by plaque assay on Vero cells. Each experiment was repeated at least once.

Assay [3] concerns the target HBV RNaseH (Hepatitis B virus genotype D subtype ayw, UniProt P03156). The settings on record: for Inhibition of HBV RNaseH, Oligonucleotide directed cleavage assay: Table 3, compounds at 100, 60 and 20 μM, compounds 1-91 and 138-140 previously reported (Cai et al., 2014).
In assay [4] the target is T1, human RNaseH1 (Homo sapiens, UniProt O60930).
T1 construct: made in house; host or cells: E. coli
T1 sequence (O60930 1-286): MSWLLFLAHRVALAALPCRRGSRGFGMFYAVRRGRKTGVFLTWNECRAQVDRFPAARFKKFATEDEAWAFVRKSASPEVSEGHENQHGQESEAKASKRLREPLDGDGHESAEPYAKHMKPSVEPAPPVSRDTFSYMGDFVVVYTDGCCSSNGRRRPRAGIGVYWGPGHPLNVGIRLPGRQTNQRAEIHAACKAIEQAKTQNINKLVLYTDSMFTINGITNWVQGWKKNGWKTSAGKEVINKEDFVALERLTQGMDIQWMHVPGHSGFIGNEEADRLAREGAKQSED
Briefly: Oligonucleotide-directed RNA cleavage assay, human RNaseH1. It is filed as biochemical. The settings on record: for inhibition of huRNaseH1: compounds at 100, 60 and 20 μM. The source says: RNaseH expression and purification.
Oligonucleotide-directed RNA cleavage assay.

The mark [5] stands for this setting: Human alphaherpesvirus 1, 24 h, 5 μM, Vero cells.

Where two headings read alike, the source gives them in different places.

Chain of HBV RNaseH (P03156 671-832): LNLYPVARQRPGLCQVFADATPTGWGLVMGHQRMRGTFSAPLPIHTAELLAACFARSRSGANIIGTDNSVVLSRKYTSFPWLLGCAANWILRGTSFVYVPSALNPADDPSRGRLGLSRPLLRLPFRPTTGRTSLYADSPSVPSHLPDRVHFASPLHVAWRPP

As for `Cc1cc(C2CCCCC2)n(O)c(=O)c1` [Compound 41, Ciclopirox, reference compound], the “HBV replication inhibition (qualitative)” value in assay [1] is “− (No inhibition detected at 20 μM)”. In assay [2] (5 μM, 24 hours, Vero cells, MOI 0.1, plaque forming units vs DMSO), the “HSV-1 suppression (log10 at 5 μM)” value is 5.0 log10. Also, the “Inhibition of HBV RNaseH, Oligonucleotide directed cleavage assay” value (from here on “Inhibition of HBV RNaseH”) in assay [3] is given as “− (No inhibition detected at 100 μM)”.

Turning to `CCOC(=O)C1=CC2C=CC=CC2N(O)C1=O` (stereo not shown) [Compound 42], the “HBV replication inhibition (qualitative)” value in assay [1] is “− (No inhibition detected at 20 μM)”. For the same compound, the log reduction at 5 µM in assay [2] (setting [5]) was below 1. For the same compound, the “Inhibition of HBV RNaseH” value in assay [3] was “− (No inhibition detected at 100 μM)”.

In the case of `O=C1C=CC2C=CC=CC2N1O` (stereo not shown) [Compound 43], the “HBV replication inhibition (qualitative)” value in assay [1] is “− (No inhibition detected at 20 μM)”. Further, the log reduction at 5 µM in assay [2] (setting [5]) was below 1. Besides, the “Inhibition of HBV RNaseH” value in assay [3] is on record as “− (No inhibition detected at 100 μM)”.

Consider `Cc1cc(C)n(O)c(=O)c1C#N` [Compound 44], for which the “HBV replication inhibition (qualitative)” value in assay [1] is “− (No inhibition detected at 20 μM)”. Also, the log reduction at 5 µM in assay [2] (setting [5]) is below 1. The “Inhibition of HBV RNaseH” value in assay [3] is “− (No inhibition detected at 100 μM)”.

As for `O=C1c2cccc3cccc(c23)C(=O)N1O` [Compound 45], the “HBV replication inhibition (qualitative)” value in assay [1] is “− (No inhibition detected at 20 μM)”. Also, the log reduction at 5 µM in assay [2] (setting [5]) was below 1. Also, the “Inhibition of HBV RNaseH” value in assay [3] is listed as “− (No inhibition detected at 100 μM)”.

In general, EC50 refers to the midpoint of the concentration-response curve. As a reminder, the IC50 is the concentration at which inhibition is half-maximal. Read a low IC50 as greater potency. Regarding `Cc1ccc(CC2C(=O)N(O)C(=O)c3ccccc32)cc1` (stereo not shown) [Compound 80], in assay [1], the EC50 was above 20 µM and the “HBV replication inhibition (qualitative)” value is “− (No inhibition detected at 20 μM)”. Moreover, the log reduction at 5 µM in assay [2] (setting [5]) is below 1. In addition, the IC50 in assay [4] (Table 1, quantitative values) is above 100 µM. Further, the “Inhibition of HBV RNaseH” value in assay [3] was “− (No inhibition detected at 100 μM)”.

As to `CCCNC(=O)C1C(=O)N(O)C(=O)c2ccccc21` (stereo not shown) [Compound 82], in assay [1], the EC50 is above 20 µM and the “HBV replication inhibition (qualitative)” value is recorded as “− (No inhibition detected at 20 μM)”. The log reduction at 5 µM in assay [2] (setting [5]) was below 1. Also, in assay [4] (Table 1, qualitative inhibition), the “Human RNaseH1” value is “+++ (detectable inhibition at 10 μM)”. Also, the “HBV RNaseH” value in assay [3] (Table 1, qualitative inhibition in biochemical assay) is “+/−”. Further, the “Inhibition of HBV RNaseH” value in assay [3] is on record as “− (No inhibition detected at 100 μM)”.

For `O=C1c2ccc3ccccc3c2C(=O)N1O` [Compound 128], in assay [2] (setting [5]), the log reduction at 5 µM is below 1. Also, in assay [3], the “Inhibition of HBV RNaseH” value is given as “− (No inhibition detected at 100 μM)”.

With `O=C(O)c1nc(Cl)c2ccccc2c1O` [Compound 132], the “HBV replication inhibition (qualitative)” value in assay [1] is on record as “− (No inhibition detected at 20 μM)”. In addition, the “Inhibition of HBV RNaseH” value in assay [3] is on record as “− (No inhibition detected at 100 μM)”.

As for `O=C1CCC(=O)N1O` [Compound 139], in assay [1], the “HBV replication inhibition / activity” value was “inactive” and the “HBV replication inhibition (qualitative)” value is reported as “− (No inhibition detected at 20 μM)”. Besides, in assay [3], the “Inhibition of HBV RNaseH” value is recorded as “− (No inhibition detected at 100 μM)”.

In the case of `CC1=C(C#N)C(=O)NC(=O)C1Cc1ccc(-c2ccccc2)o1` (stereo not shown) [Compound 140], the “HBV replication inhibition (qualitative)” value in assay [1] is “− (No inhibition detected at 20 μM)”. For the same compound, in assay [2] (setting [5]), the log reduction at 5 µM is below 1. In addition, in assay [3], the “Inhibition of HBV RNaseH” value is given as “− (No inhibition detected at 100 μM)”.

On to `CC1CC(=O)N(O)C(CC(C)CC(C)(C)C)C1` (stereo not shown) [Compound 191, Piroctone olamine, reference compound], for which, in assay [1], the “HBV replication inhibition (qualitative)” value was “− (No inhibition detected at 20 μM)”. Besides, in assay [3], the “Inhibition of HBV RNaseH” value is listed as “− (No inhibition detected at 100 μM)”.

`Oc1nc2ccccc2nc1O` [Compound 198, 2,3-dihydroxy-quinoxaline]: the “HBV replication inhibition (qualitative)” value in assay [1] is “− (No inhibition detected at 20 μM)”. For the same compound, the log reduction at 5 µM in assay [2] (setting [5]) is below 1. Moreover, the “Inhibition of HBV RNaseH” value in assay [3] was “− (No inhibition detected at 100 μM)”.

Regarding `NN1C(=O)Cc2ccccc2C1=O` [Compound 204], in assay [1], the “HBV replication inhibition / activity” value is “inactive” and the “HBV replication inhibition (qualitative)” value is reported as “− (No inhibition detected at 20 μM)”. In assay [2] (setting [5]), the log reduction at 5 µM is below 1. The “inhibition of huRNaseH1” value in assay [4] is on record as “detectably inhibited”. In assay [3], the “Inhibition of HBV RNaseH” value was “− (No inhibition detected at 100 μM)”.

Regarding `Nc1cccc(O)n1` [Compound 206], the “HBV replication inhibition (qualitative)” value in assay [1] was “− (No inhibition detected at 20 μM)”. Also, the log reduction at 5 µM in assay [2] (setting [5]) is below 1. For the same compound, in assay [4], the “inhibition of huRNaseH1” value is listed as “detectably inhibited”. Further, in assay [3], the “Inhibition of HBV RNaseH” value is reported as “− (No inhibition detected at 100 μM)”.

As for `O=C1C(=O)N(O)C2CCCCC2N1O` (stereo not shown) [Compound 217], in assay [1], the “HBV replication inhibition (qualitative)” value is listed as “− (No inhibition detected at 20 μM)”. Moreover, the log reduction at 5 µM in assay [2] (Human alphaherpesvirus 1, Vero, 24 h) was below 1. Also, in assay [4], the “inhibition of huRNaseH1” value is “detectably inhibited”. For the same compound, in assay [3], the “Inhibition of HBV RNaseH” value is “− (No inhibition detected at 100 μM)”.

With `O=C1Cn2c(cc3ccccc32)C(=O)N1O` [Compound 236], the “HBV replication inhibition (qualitative)” value in assay [1] is given as “− (No inhibition detected at 20 μM)”. Also, in assay [2] (setting [5]), the log reduction at 5 µM was below 1. Further, the “Inhibition of HBV RNaseH” value in assay [3] was “− (No inhibition detected at 100 μM)”.

Turning to `O=C1Cn2c(cc3cc(Cl)ccc32)C(=O)N1O` [Compound 237], the “HBV replication inhibition (qualitative)” value in assay [1] was “− (No inhibition detected at 20 μM)”. Besides, in assay [2] (setting [5]), the log reduction at 5 µM was below 1. Besides, the “Inhibition of HBV RNaseH” value in assay [3] is “− (No inhibition detected at 100 μM)”.

Consider `COc1ccc2c(c1)cc1n2CC(=O)N(O)C1=O` [Compound 238], for which the “HBV replication inhibition (qualitative)” value in assay [1] is “− (No inhibition detected at 20 μM)”. The log reduction at 5 µM in assay [2] (setting [5]) is below 1. Further, in assay [3], the “Inhibition of HBV RNaseH” value is “− (No inhibition detected at 100 μM)”.

In the case of `O=C1Cn2c(cc3ccccc32)C(=O)N1` [Compound 239], the “HBV replication inhibition (qualitative)” value in assay [1] was “− (No inhibition detected at 20 μM)”. Moreover, the log reduction at 5 µM in assay [2] (setting [5]) was below 1. Further, the “Inhibition of HBV RNaseH” value in assay [3] is on record as “− (No inhibition detected at 100 μM)”.

As for `O=C1Cn2c(cc3cc(O)ccc32)C(=O)N1O` [Compound 240], in assay [1], the “HBV replication inhibition (qualitative)” value was “− (No inhibition detected at 20 μM)”. In addition, the log reduction at 5 µM in assay [2] (setting [5]) is below 1. The “inhibition of huRNaseH1” value in assay [4] is recorded as “detectably inhibited”. Moreover, the “Inhibition of HBV RNaseH” value in assay [3] is “− (No inhibition detected at 100 μM)”.

As for `O=C1Cn2c(cc3cc(F)ccc32)C(=O)N1O` [Compound 241], the “HBV replication inhibition (qualitative)” value in assay [1] is “− (No inhibition detected at 20 μM)”. In addition, in assay [2] (setting [5]), the log reduction at 5 µM is below 1. The “Inhibition of HBV RNaseH” value in assay [3] is given as “− (No inhibition detected at 100 μM)”.
